US20250381110A1, “SKIN CARE COMPOSITION AND METHOD OF USING THE SAME” (THE PROCTER & GAMBLE COMPANY, priority 2024, published 2025)
Structures can show the parent of a compound that is named as a salt. Where a SMILES comes first, the peptide text is derived from it. Bridges are numbered along the chain shown (N, C = ends). [ ]: non-standard residue; d: D form. The star is where a group is joined. Ileψ(thiazoline)Cys = CC[C@H](C)[C@H](N)C1=N[C@H](C(=O)*)CS1; dOrn = NCCC[C@@H](N)C(=O)O

System: p62-dependent mitophagy
Experiment: Luciferase-p62 assay (Fluc-p62 clearance) in mouse embryonic fibroblasts
Type: cell-based
Settings: for Mean Luminescence: Luciferase-p62 assay, mouse embryonic fibroblasts (MEFs), compounds at 10 μM; for % Activity over baseline: percentage of Luciferase-p62 clearance relative to baseline (mean luminescence in the absence of doxycycline induction); for % Activity over baseline / % Activity relative to Rapamycin: MEFs, 10 μM; for % Activity relative to Rapamycin: percentage of activity relative to rapamycin tested in the same experiment at the same concentration
Protocol: To identify p62-dependent materials which increase mitophagy, a Luciferase-p62 Assay was established. This method provides an approach to measure the ability of a material to modulate p62-dependent mitophagy by using an inducible firefly luciferase-p62 (Fluc-p62) reporter cell system. In this assay, p62 levels are driven by doxycycline treatment. After levels increased, expression of Fluc-p62 is turned off by removal of doxycycline, materials are then added and assessed for how they affect clearance of Fluc-p62 protein, which is proportionate to cellular mitophagy rates (Kelly et al.). The negative control is doxycycline induced Luc-p62 in the absence of compound or bioactive material treatment and in the presence of vehicle (DMSO).
Test materials including bioactive materials were screened in mouse embryonic fibroblasts (MEFs, Harada et al.) expressing the TET-inducible p62-fluc construct as previously described (Brown et al.). […] Gibson assembly was used to insert firefly luciferase (Fluc) and p62 into the pCW57.1 backbone. Fluc, p62, and pCW57.1 were polymerase chain reaction (PCR) amplified using pfu polymerase (Life technologies) and Gibson assembly primers with 20 base pair (bp) overhangs. PCR products were separated by agarose gel electrophoreses, and fragments excised and purified before use in DNA assembly reaction with NEBuilder HiFi DNA Assembly kit (New England Biolabs). After the assembly, the reaction mix was transformed into NEB3040 Stable Competent Escherichia coli (New England Biolabs). After 24 hours growth at 31 degrees Celsius the plasmid was extracted using QIAprep Spin Miniprep kit (Qiagen). The plasmid was sequenced to confirm correct insertion of Fluc-p62. To generate MEFs stably expressing doxycycline inducible Fluc-p62, HEK293FT cells were transfected with Fluc-p62-pCW57.1 and the ViraPower Packaging Mix (Invitrogen) to produce lentivirus. MEFs were transduced with the obtained lentiviral stock following followed by selection with 1 microgram per milliliter puromycin.Fluc-p62expressing MEFs were maintained in DMEM supplemented with 10 percent fetal bovine serum (FBS), 100 units per milliliter penicillin/streptomycin, and 2 millimolar L-glutamine in a humidified atmosphere containing 5 percent carbon dioxide at 37 degrees Celsius. Cells were plated into white 96 well plates (2,000 cells per well with 100 microliters media) and allowed to settle for 24 hours. […] Subsequently, cells were treated with test materials for 48 hours in normal growth medium and analysed using ONE-Glo™+Tox Luciferase Reporter and Cell Viability Assay (Promega) by following the manufacturer's protocol.
Test compositions and control compositions were prepared as described above in the Luciferase-p62 assay (Method 3) and tested accordingly. The compounds used in this example, as examples of bioactive materials, were from the APExBIO DiscoveryProbe™ Natural Product Library Plus (Houston, TX) and evaluated at equivalent concentrations (10 μM).
Data are additionally calculated as percentage of activity relative to rapamycin, a benchmark control compound tested in the same experiment.

Compound	Mean Luminescence	% Activity over baseline [%]	% Activity relative to Rapamycin [%]
CC(C)CC(=O)NCC(=O)O [Isovaleroylglycine]	776.88	51.99	93.67
CCOC(=O)O[C@]1(C(=O)OCCl)CC[C@H]2[C@@H]3CCC4=CC(=O)C=C[C@]4(C)[C@H]3[C@@H](O)C[C@@]21C [Loteprednol etabonate]	214.82	86.72	156.26
CCC/C=C1\OC(=O)C2=C1CCC=C2 [Z-Ligustilide]	895.67	44.65	80.44
C[C@@H]1CC[C@H]2C(C)(C)[C@H]3C[C@@]12CC[C@@]3(C)O [Cedrol]	850.22	47.46	85.50
O=c1ccn([C@H]2C[C@H](O)[C@@H](CO)O2)c(=O)[nH]1 [Compound 2-Deoxyuridine]	867.92	46.36	83.53
CC(CC(=O)O)CC(=O)O [3-Methylglutaric acid]	818.33	49.43	89.05
COc1c(C)c2c(c(O)c1C/C=C(\C)CCC(=O)OCCN1CCOCC1)C(=O)OC2 [Mycophenolate Mofetil]	594.21	63.28	114.01
C[C@@H]1CCCCCCCCCCCCC(=O)C1 [Muscone]	869.43	46.27	83.36
OC[C@H]1O[C@H](OCC2O[C@@H](O)[C@H](O)[C@@H](O)[C@@H]2O)[C@H](O)[C@@H](O)[C@H]1O (stereo partly drawn) [Melibiose]	715.78	55.76	100.47
CC1(C)S[C@@H]2[C@H](NC(=O)Cc3ccccc3)C(=O)N2[C@H]1C(=O)O [Benzylpenicillin potassium]	937.79	42.04	75.75
C[C@H](CC[C@@]1(O)O[C@H]2C[C@H]3[C@@H]4CC=C5C[C@@H](O[C@@H]6O[C@H](CO)[C@@H](O[C@@H]7O[C@@H](C)[C@H](O)[C@@H](O)[C@H]7O)[C@H](O)[C@H]6O[C@@H]6O[C@@H](C)[C@H](O)[C@@H](O)[C@H]6O)CC[C@]5(C)[C@H]4CC[C@]3(C)[C@H]2[C@@H]1C)CO[C@@H]1O[C@H](CO)[C@@H](O)[C@H](O)[C@H]1O [Protodioscin]	713.58	55.90	100.72
CC[C@H]1OC(=O)[C@H](C)[C@@H](O[C@H]2C[C@@](C)(OC)[C@@H](O)[C@H](C)O2)[C@H](C)[C@@H](O[C@@H]2O[C@H](C)C[C@H](N(C)C)[C@H]2O)[C@](C)(OC)C[C@@H](C)C(=O)[C@H](C)[C@@H](O)[C@]1(C)O [Clarithromycin]	941.49	41.82	75.34
CO/N=C(\C(=O)N[C@@H]1C(=O)N2C(C(=O)O)=C(CSC(=O)c3ccco3)CS[C@H]12)c1csc(N)n1 [Ceftiofur HCl]	781.02	51.73	93.21
Tubeimoside I	257.38	84.09	151.52
Oc1cc(O)cc(/C=C/c2ccc(O)cc2O)c1 [Oxyresveratrol]	403.74	75.05	135.22
CCOC(=O)c1c(C)n(C)c2ccc(O)cc12 [Mecarbinate]	799.96	50.56	91.10

Compound	Mean Luminescence	% Activity over baseline [%]	% Activity relative to Rapamycin [%]
CC[C@H](C)[C@H](N)C1=N[C@H](C(=O)N[C@@H](CC(C)C)C(=O)N[C@H](CCC(=O)O)C(=O)N[C@H](C(=O)N[C@H]2CCCCNC(=O)[C@H](CC(N)=O)NC(=O)[C@@H](CC(=O)O)NC(=O)[C@H](Cc3cnc[nH]3)NC(=O)[C@@H](Cc3ccccc3)NC(=O)[C@H]([C@@H](C)CC)NC(=O)[C@@H](CCCN)NC2=O)[C@@H](C)CC)CS1 [Bacitracin] ({Ileψ(thiazoline)Cys}-L[dE]IK[dOrn]I[dF]H[dD]N; lactam 4-C)	860.05	46.85	84.41
C/C=C1/[C@H](O[C@@H]2O[C@H](CO)[C@@H](O)[C@H](O)[C@H]2O)OC=C(C(=O)OC)[C@H]1CC(=O)OCCc1ccc(O)c(O)c1 [Oleuropein]	843.32	47.88	86.27
COc1ccc(C(=O)O)cc1OC [Veratric acid]	937.88	42.04	75.74
C[C@]12C[C@H](O)[C@H]3[C@@H](CCC4=CC(=O)CC[C@@]43C)[C@@H]1CC[C@@H]2C(=O)CO [Corticosterone]	870.00	46.23	83.30
C[C@H](CCC(=O)O)[C@H]1CC[C@H]2[C@@H]3CC[C@@H]4C[C@H](O)CC[C@]4(C)[C@H]3C[C@H](O)[C@]12C [Deoxycholic acid sodium salt]	591.12	63.47	114.35
COc1cc(CNC(=O)CCCC/C=C/C(C)C)ccc1O [Capsaicin]	832.02	48.58	87.53
O=C(CCc1ccc(O)cc1)c1c(O)cc(O)cc1O [Phloretin]	912.42	43.61	78.58
CS(=O)(=O)CCNCc1ccc(-c2ccc3ncnc(Nc4ccc(OCc5cccc(F)c5)c(Cl)c4)c3c2)o1 [Lapatinib Ditosylate]	578.14	64.27	115.80
Nc1ccn([C@@H]2O[C@H](CO)[C@@H](O)[C@H]2O)c(=O)n1 [Cytidine]	841.40	48.00	86.49
C=CCCC(=O)O [4-Pentenoic acid]	936.28	42.14	75.92
O=C1C=CC(=O)c2c(O)cccc21 [Juglone]	894.51	44.72	80.57
O=c1ccc2ccc3occc3c2o1 [Angelicin]	910.28	43.74	78.82
CO[C@@]12[C@H](COC(N)=O)C3=C(C(=O)C(C)=C(N)C3=O)N1C[C@@H]1N[C@@H]12 [Mitomycin C]	867.02	46.42	83.63
OC[C@@H](O)[C@@H](O)CO [Erythritol]	696.09	56.98	102.67
CCC(C)n1ncn(-c2ccc(N3CCN(c4ccc(OCC5COC(Cn6cncn6)(c6ccc(Cl)cc6Cl)O5)cc4)CC3)cc2)c1=O (stereo not drawn) [Itraconazole]	450.47	72.16	130.02
